{
  "source": "patent US6448431B1",
  "about": "“Production of aryl carboxylate esters” (priority 1999, dated 2002)",
  "key": {"[1]": {"settings": "cited from earlier work"}, "[2]": {"assay": "Solubility of NOBS in selected solvents", "assay_type": "physicochemical", "settings": "23° C., grams of NOBS soluble in 100 grams of solution", "source_text": "The solvent properties of TFA are unique and highly advantageous in the synthesis of phenolsulfonate esters. […] It is notable that the only solvent in which NOBS is more soluble than water is TFA. I have found no better solvent for NOBS than TFA. This is surprising. […] It is likely that hydrogen bonding in TFA facilitates the solvation of sulfonate anions but it is notable, in contrast, that such effects are much weaker in acetic acid. Furthermore, while it is known in the art that dimethyl sulfoxide (DMSO) and dimethylformamide (DMF) are relatively good solvents for benzenesulfonate esters they are much weaker solvents than TFA and because TFA has a much lower boiling point than these dipolar aprotic solvents it is the only good solvent for benzenesulfonate esters which can be readily stripped from product solutions and then purified and recycled with relative ease."}},
  "data": [
    {"smiles": "O=C(O)C(F)(F)F", "note": "[CF3CO2H, trifluoroacetic acid]", "values": [
      {"measurement": "Aqueous pKa", "setting": "[1]", "result": 0.22}
    ]},
    {"smiles": "CCCCCCCCC(=O)Oc1ccc(S(=O)(=O)[O-])cc1.[Na+]", "note": "[NOBS, sodium 4-(nonanoyloxy)benzenesulfonate]", "values": [
      {"measurement": "Solubility of NOBS, wt % NOBS", "setting": "[2]; solvent DMF", "result": 10.1, "unit": "wt %"},
      {"measurement": "Solubility of NOBS, wt % NOBS", "setting": "[2]; solvent DMSO", "result": 15.9, "unit": "wt %"},
      {"measurement": "Solubility of NOBS, wt % NOBS", "setting": "[2]; solvent NMP", "result": 8.4, "unit": "wt %"},
      {"measurement": "Solubility of NOBS, wt % NOBS", "setting": "[2]; solvent TFA", "result": 23.4, "unit": "wt %"},
      {"measurement": "Solubility of NOBS, wt % NOBS", "setting": "[2]; solvent acetic acid", "result": 1.7, "unit": "wt %"},
      {"measurement": "Solubility of NOBS, wt % NOBS", "setting": "[2]; solvent acetone", "result": 0.02, "unit": "wt %"},
      {"measurement": "Solubility of NOBS, wt % NOBS", "setting": "[2]; solvent acetonitrile", "result": 0.01, "unit": "wt %"},
      {"measurement": "Solubility of NOBS, wt % NOBS", "setting": "[2]; solvent nonanoic acid", "result": 0.03, "unit": "wt %"},
      {"measurement": "Solubility of NOBS, wt % NOBS", "setting": "[2]; solvent water", "result": 22.8, "unit": "wt %"}
    ]}
  ]
}
